The record followed here is patent US20090325960A1, “METHOD FOR TREATING INFLAMMATORY DISEASES USING RHO KINASE INHIBITOR COMPOUNDS” (priority 2008, published 2009).

Where two headings read alike, the source gives them in different places.

Series [1] concerns cytokine secretion from LPS-stimulated human monocytes. In words: Human monocyte cytokine secretion assay (LPS-stimulated). The class given is cell-based.
Protocol: Peripheral blood from healthy human volunteers was collected and the monocytes isolated via Ficoll-paque density centrifugation. […] The cells were allowed to pre-incubate with test compound at the indicated concentration for 30 minutes (37° C., 5% CO2, humidified air); after which the supernatant was removed and media containing compound and 1 ng/mL LPS was added. Cells were allowed to incubate with compounds and LPS for 4 hours at 37° C. after which the supernatant was removed and stored at −80° C. Cytokine concentrations in the supernatant were determined using commercially available Bio-Rad Bio-Plex™ kits according the manufacturer's instructions.
A short description of series [2]: Rat oral pharmacokinetics (plasma). The class given is in vivo. Conditions: rat oral PK, mean of n = 3 rats; for AUC (0-last): time zero through last observable value.
Protocol: Plasma (EDTA K2 anticoagulant) was collected from male, cannulated, CD Sprague Dawley rats to determine the pharmacokinetics of formulations containing compound inhibitors of Rho kinase. Each animal was dosed orally with a 4 ml/kg solution or suspension of each test compound in 10 mM acetate buffered saline, pH 4.5 at a final concentration range of 20-30 mol/kg. Blood was collected at 0.25, 0.5, 1, 2, 4, 6, 8, and 24 hours. Plasma samples were assayed for the concentration of the test compound using an on-line, solid phase extraction LC/MS/MS analysis system.
Pharmacokinetic analyses were performed using WinNonlin software version 5.2 (Pharsight Corporation, Mountain View, Calif.).
As determined from the plasma concentration versus time curves, the time to peak and peak exposure are represented by the values Tmax and Cmax, respectively. The AUC values (nM*hr) shown were calculated as the areas under the plasma concentration versus time curves from time zero through the time of the last observable value and represent the total exposure of the compound over the course of the study. Half-life values or the amount of time required for the plasma levels of the compound to decline to half the initial value are represented as t1/2.
Series [3] relates to A-10 rat thoracic aorta cells. Kind of series: PDGF-stimulated smooth muscle cell proliferation assay (BrdU incorporation). The class given is cell-based. In general terms: Dividing cells build labelled thymidine or BrdU into new DNA.
Protocol: Effects on cell proliferation were measured using a bromodeoxyuridine (BrdU) incorporation assay. […] Serum free media containing 0.1% BSA was added to the cells. 24 hours later the media was removed and replaced with warmed serum free media. […] Proliferation was then monitored using the BrdU Cell Proiferation Assay, HTS (Calbiochem cat. # HTS01). BrdU was allowed to incorporate into cells for 24 hours prior to the addition of fixative/denaturing solution and the fluorometric detection of incorporated BrdU using a BrdU antibody as per manufacturer's directions. Data are reported as a percent of the PDGF-stimulated BrdU incorporation.
Setting [4] is: 10 μM of test compound, 1 ng/mL LPS, 4 hours, read-out: IL-1β % (Percent inhibition values for inhibition of cytokine secretion).
Where [5] appears, read: 10 μM of test compound, 1 ng/mL LPS, 4 hours, read-out: TNF-α % (Percent inhibition values for inhibition of cytokine secretion).
Where [6] appears, read: read-out: IL-6 % (Percent inhibition values for inhibition of cytokine secretion), 10 μM of test compound, 1 ng/mL LPS, 4 hours.

Regarding `Fc1ccc(CN2CCC[C@H](Nc3ccc4[nH]ncc4c3)C2)cc1F` [Compound 1.072, (S)-N-(1-(3,4-difluorobenzyl)piperidin-3-yl)-1H-indazol-5-amine], the activity at 10 µM in series [1] (setting [4]) came to 98.2%; in series [1] (setting [5]) it was 83.8%; in series [1] (setting [6]), 96.1%.

`CSc1ccc(CN2CCC[C@@H](Nc3ccc4[nH]ncc4c3)C2)cc1` [Compound 1.074, (R)-N-(1-(4-(methylthio)benzyl)piperidin-3-yl)-1H-indazol-5-amine]: the activity at 10 µM in series [1] (setting [6]) was 96%.

As to `Cc1ccc(CN2CCC[C@H](Nc3ccc4[nH]ncc4c3)C2)cc1` [Compound 1.078, (S)-N-(1-(4-methylbenzyl)piperidin-3-yl)-1H-indazol-5-amine], the values for the activity at 10 µM in series [1] (setting [4]), in series [1] (setting [5]) and in series [1] (setting [6]) were 60.4%, 88.1% and 111%, respectively.

As for `OCCOc1cccc(CN2CCC[C@@H](Nc3ccc4[nH]ncc4c3)C2)c1` [Compound 1.092, (R)-2-(3-((3-(1H-indazol-5-ylamino)piperidin-1-yl)methyl)phenoxy)ethanol], in series [2], the Vz_F was determined as 19.0 L/kg.

On to `c1ccc(CN2CCC[C@@H](Nc3ccc4[nH]ncc4c3)C2)cc1` [Compound 1.110, (R)-N-(1-benzylpiperidin-3-yl)-1H-indazol-5-amine], for which the activity at 10 µM in series [1] (setting [4]) was 134%; in series [1] (setting [5]), 119%; in series [1] (setting [6]) it was 112%.

On to `O=C(COc1cccc(CN2CCC[C@@H](Nc3ccc4[nH]ncc4c3)C2)c1)N1CCOCC1` [Compound 1.127, (R)-2-(3-((3-(1H-indazol-5-ylamino)piperidin-1-yl)methyl)phenoxy)-l-morpholinoethanone], for which the values for the activity at 10 µM in series [1] (setting [4]), in series [1] (setting [5]) and in series [1] (setting [6]) were 198%, 97.3% and 67.3%, respectively.

Regarding `CCc1ccc(CN2CCC[C@@H](Nc3ccc4[nH]ncc4c3)C2)cc1` [Compound 1.136, (R)-N-(1-(4-ethylbenzyl)piperidin-3-yl)-1H-indazol-5-amine], in series [2], the Cmax entry was “BLQ”, the Tmax result was “BLQ”, the Vz_F result was “BLQ” and the t½ entry was “BLQ”. For the same molecule, the “AUC (0-last)” value in series [2] is on record as “BLQ”.

Consider `Brc1ccc(CN2CCC[C@H](Nc3ccc4[nH]ncc4c3)C2)cc1` [Compound 1.142, (S)-N-(1-(4-bromobenzyl)piperidin-3-yl)-1H-indazol-5-amine], for which, in series [1] (setting [4]), the activity at 10 µM turned out to be 82.8%.

As for `c1cc2cc(CN3CCC[C@@H](Nc4ccc5[nH]ncc5c4)C3)ccc2[nH]1` [Compound 1.143, (R)-N-(1-((1H-indol-5-yl)methyl)piperidin-3-yl)-1H-indazol-5-amine], the activity at 10 µM in series [1] (setting [4]) stood at 76.8%.

For the molecule `Oc1cccc(CN2CCC[C@@H](Nc3ccc4[nH]ncc4c3)C2)c1` [Compound 1.145, (R)-3-((3-(1H-indazol-5-ylamino)piperidin-1-yl)methyl)phenol], the activity at 10 µM in series [1] (setting [4]) was 129%.

For `Fc1ccc(CN2CCC[C@@H](Nc3ccc4[nH]ncc4c3)C2)cc1` [Compound 1.146, (R)-N-(1-(4-fluorobenzyl)piperidin-3-yl)-1H-indazol-5-amine], the activity at 10 µM in series [1] (setting [5]) worked out at 97.7%; in series [1] (setting [6]), 128%.

As for `Cc1ccc(CN2CCC[C@H](Nc3ccc4[nH]ncc4c3)C2)cc1O` [Compound 1.151, (S)-5-((3-(1H-indazol-5-ylamino)piperidin-1-yl)methyl)-2-methylphenol], the activity at 10 µM in series [1] (setting [6]) came out at 114%.

Turning to `Clc1cccc(CN2CCC[C@H](Nc3ccc4[nH]ncc4c3)C2)c1` [Compound 1.170, (S)-N-(1-(3-chlorobenzyl)piperidin-3-yl)-1H-indazol-5-amine], the activity at 10 µM in series [1] (setting [4]) came out at 80.6%; in series [1] (setting [5]), 67.8%; in series [1] (setting [6]) it was 72.7%.

As to `C=Cc1ccc(CN2CCC[C@@H](Nc3ccc4[nH]ncc4c3)C2)cc1` [Compound 1.208, (R)-N-(1-(4-vinylbenzyl)piperidin-3-yl)-1H-indazol-5-amine], the results for the activity at 10 µM in series [1] (setting [4]), in series [1] (setting [5]) and in series [1] (setting [6]) were 62%, 92% and 109%, respectively.

As to `COc1ccc(CN2CCC[C@@H](Nc3ccc4[nH]ncc4c3)C2)cc1` [Compound 1.226, (R)-N-(1-(4-methoxybenzyl)piperidin-3-yl)-1H-indazol-5-amine], the activity at 10 µM in series [1] (setting [4]) stood at 99.3%; in series [1] (setting [5]), 66.6%.

As for `c1ccc(CN2CCC[C@H](Nc3ccc4[nH]ncc4c3)C2)cc1` [Compound 1.227, (S)-N-(1-benzylpiperidin-3-yl)-1H-indazol-5-amine], the activity at 10 µM in series [1] (setting [4]) amounted to 69.4%; in series [1] (setting [5]), 79.3%; in series [1] (setting [6]), 66.7%.

Turning to `C=Cc1ccc(CN2CCC[C@H](Nc3ccc4[nH]ncc4c3)C2)cc1` [Compound 1.229, (S)-N-(1-(4-vinylbenzyl)piperidin-3-yl)-1H-indazol-5-amine], the activity at 10 µM was 44.9% in series [1] (setting [4]), 50.7% in series [1] (setting [5]) and 63.2% in series [1] (setting [6]).

As to `c1cc2c(cc1CN1CCC[C@@H](Nc3ccc4[nH]ncc4c3)C1)CCO2` [Compound 1.246, (R)-N-(1-((2,3-dihydrobenzofuran-5-yl)methyl)piperidin-3-yl)-1H-indazol-5-amine], the results for the activity at 10 µM in series [1] (setting [4]), in series [1] (setting [5]) and in series [1] (setting [6]) were 103%, 79% and 108%, respectively.

Turning to `CSc1ccc(CN2CC[C@@H](Nc3cccc4cnccc34)C2)cc1` [Compound 2.026, (R)-N-(1-(4-(methylthio)benzyl)pyrrolidin-3-yl)isoquinolin-5-amine], in series [3] (10 μM, 10 ng/mL PDGF), the “Percent of PDGF Induced Proliferation at 10 μM Avg” value is given as 52.0%. In addition, the “Proliferation at 10 μM” value in series [3] (average percent of PDGF stimulated proliferation at 10 μM test compound) is 52.0%. In series [2], the Cmax result was “BLQ”, the Tmax result is “BLQ”, the Vz_F result was “BLQ” and the t½ result was “BLQ”. In series [2], the “AUC (0-last)” value was “BLQ”.

As to `NC(=O)Cn1ccc2ccc(CN3CC[C@@H](Nc4cccc5cnccc45)C3)cc21` [Compound 2.058, (R)-2-(6-((3-(isoquinolin-5-ylamino)pyrrolidin-1-yl)methyl)-1H-indol-1-yl)acetamide], the activity at 10 µM in series [1] (setting [6]) was 1.3%.
